Tests used:
Type in all cases: cell-based, human
H1355 T16 = experiment: MTS cell viability assay, H1355 T16 resistant variant vs H1355 Parental; settings: for H1355 T16 SR (Selectivity Ratio): SR = [IC50 of Parental]/[IC50 of Resistant], H1355 T16 vs H1355 Parental; for cross-resistance of paclitaxel+carboplatin resistant variant: H1355 T16; for loss of cell viability: H1355 T16 and H1355 Parental
Description: (§1) NSCLC lines were treated with paclitaxel+carboplatin combination, given in a ˜2:3 wt/wt ratio, to mirror the clinical dosage values of ˜225 mg/m2 and ˜330 mg/m2, paclitaxel and carboplatin respectively. Note that considering the molecular weights of the two drugs, this translates to approximately a 1 to 3.4 molar ratio. Drugs were given in cycles, following a drug on/drug off treatment scheme. Each cycle consisted of 4-5 days of drug treatment and drug-free culturing for about 1-2 weeks or more to allow the surviving cells to repopulate the plate. […] Untreated parental cells were simultaneously maintained at all times for comparison. Cell viability was assessed in 96-well plates using standard MTS assays (Promega). Treatment duration in MTS assays was 4 days. Drugs were tested in two- or four-fold serial dilutions, totaling 8 different drug concentrations, with 8 replicates per concentration. Response was validated in multiple replicate plates (n≥3).
(§2) Cell viability was assessed by standard MTS assays using Promega's CellTiter reagents. Eight drug concentrations given as two- or four-fold dilutions were tested for each chemotherapeutic agent. In addition, each experiment contained eight replicates per concentration and the entire assay was performed in multiple replicates (n≥3).

H1299 T18 = experiment: MTS cell viability assay, H1299 T18 resistant variant vs H1299 Parental; settings: for H1299 T18 SR (Selectivity Ratio): SR = [IC50 of Parental]/[IC50 of Resistant], H1299 T18 vs H1299 Parental; for cross-resistance of paclitaxel+carboplatin resistant variants: resistant variants (FIGS. 2D, 9); for loss of cell viability: H1299 T18 and H1299 Parental
Description: as §1, §2

HCC4017 T5 = experiment: MTS cell viability assay, HCC4017 T5 resistant variant vs parental; settings: HCC4017 T5 and parental
Description: as §1, §2

H1693 T8 = experiment: MTS cell viability assay, H1693 T8 resistant variant vs parental; settings: H1693 T8 and parental
Description: as §1, §2

Row | SMILES | H1355 T16 SR (Selectivity Ratio) (H1355 T16) | H1299 T18 SR (Selectivity Ratio) (H1299 T18) | other results
1 | COc1cc2nc(N3CCCN(C)CC3)nc(NC3CCN(Cc4ccccc4)CC3)c2cc1OC [BIX 01294] | 1.9 | 0.9 | –
2 | c1cc(SSc2ccns2)sn1 [NU 9056] | 1.0 | 2.0 | –
3 | Oc1nc(-c2ccc(C(F)(F)F)cc2)nc2c1CSCC2 [XAV939] | 1.0 | 2.7 | –
4 | COc1cccc2c1C(=O)c1c(O)c3c(c(O)c1C2=O)C[C@@](O)(C(=O)CO)C[C@@H]3O[C@H]1C[C@H](N)[C@H](O)[C@H](C)O1 [Doxorubicin] | 0.25 | 0.04 | cross-resistance of paclitaxel+carboplatin resistant variant (H1355 T16): cross-resistant; cross-resistance of paclitaxel+carboplatin resistant variants (H1299 T18): cross-resistant
5 | O=C(CCCCCN1C(=O)c2cccc3cccc(c23)C1=O)NO [Scriptaid] | 1.4 | 1.5 | –
6 | CCCC(CCC)C(=O)O [Valproic acid] | 1.3 | 1.4 | –
7 | CC/C(=C(\c1ccccc1)c1ccc(OCCN(C)C)cc1)c1ccccc1 [Tamoxifen] | 1.0 | 1.0 | –
8 | CC(=O)O[C@H]1C(=O)[C@@]2(C)[C@H]([C@H](OC(=O)c3ccccc3)[C@]3(O)C[C@H](OC(=O)[C@H](O)[C@@H](NC(=O)c4ccccc4)c4ccccc4)C(C)=C1C3(C)C)[C@]1(OC(C)=O)CO[C@@H]1C[C@@H]2O [Paclitaxel] | 0.02 | 0.03 | –
9 | O=C(/C=C/N1C[C@H]2C[C@@H]1CN2c1ccccn1)c1ccccc1O [PFI 3] | 2.5 | 1.1 | –
10 | CCOC(=O)CCNc1cc(N2CCc3ccccc3CC2)nc(-c2cccnc2)n1 [GSK-J5] | – | – | loss of cell viability (H1355 T16): no loss of cell viability; loss of cell viability (H1299 T18): no effect on cell viability
11 | O=C(/C=C/c1cccnc1)NCCCCC1CCN(C(=O)c2ccccc2)CC1 [FK866] | 2.1 | 0.1 | –
12 | NC1(c2ccc(-c3nc4ccn5c(=O)[nH]nc5c4cc3-c3ccccc3)cc2)CCC1 [MK-2206] | 1.8 | 0.7 | –
13 | N.N.O=C([O-])C1(C(=O)[O-])CCC1.[Pt+2] [Carboplatin] | 1.2 | 0.8 | –
14 | CN(C)c1ccc(C(=O)NCCCCCCC(=O)NO)cc1 [M344] | 1.8 | 1.1 | –
15 | Clc1ccc(N/N=C(/c2ccccc2)c2ccccn2)nc1 (single isomer, unassigned) [Z isomer (Inactive)] | 1.0 | 1.1 | loss of cell viability (HCC4017 T5): No loss in cell viability; loss of cell viability (H1355 T16): no loss of cell viability; loss of cell viability (H1693 T8): No loss in cell viability; loss of cell viability (H1299 T18): no viability loss
16 | COc1ccc(CCc2nc3cc(-c4c(C)noc4C)ccc3n2C[C@H](C)N2CCOCC2)cc1Cl [SGC-CBP30] | 0.9 | 1.3 | –
17 | CC[C@H](C)n1cc(C)c2c(C(=O)NCc3c(C)cc(C)[nH]c3=O)cc(-c3ccc(N4CCNCC4)nc3)cc21 [GSK 126] | 0.8 | 1.0 | –
18 | Cc1sc2c(c1C)C(c1ccc(Cl)cc1)=N[C@@H](CC(=O)OC(C)(C)C)c1nnc(C)n1-2 [JQ1] | 6.6 | 0.6 | –
19 | C/C=C1\NC(=O)[C@H]2CSSCC/C=C/[C@H](CC(=O)N[C@H](C(C)C)C(=O)N2)OC(=O)[C@H](C(C)C)NC1=O [Depsipeptide] | 0.03 | 0.05 | cross-resistance of paclitaxel+carboplatin resistant variant (H1355 T16): cross-resistant; cross-resistance of paclitaxel+carboplatin resistant variants (H1299 T18): cross-resistant
20 | CCc1c2c(nc3ccc(OC(=O)N4CCC(N5CCCCC5)CC4)cc13)-c1cc3c(c(=O)n1C2)COC(=O)[C@]3(O)CC [Irinotecan] | 2.7 | 1.1 | –
21 | NC1CC1c1ccccc1 (stereo not drawn) [2-PCPA] | 1.8 | 1.3 | –
22 | CCC1=C[C@@H]2CN(C1)Cc1c([nH]c3ccccc13)[C@@](C(=O)OC)(c1cc3c(cc1OC)N(C)[C@H]1[C@@](O)(C(=O)OC)[C@H](OC(C)=O)[C@]4(CC)C=CCN5CC[C@]31[C@@H]54)C2 [Vinorelbine] | 0.002 | 0.03 | cross-resistance of paclitaxel+carboplatin resistant variant (H1355 T16): cross-resistant; cross-resistance of paclitaxel+carboplatin resistant variants (H1299 T18): cross-resistant
23 | CC(=O)O[C@@]12CO[C@@H]1C[C@H](O)[C@@]1(C)C(=O)[C@H](O)C3=C(C)[C@@H](OC(=O)[C@H](O)[C@@H](NC(=O)OC(C)(C)C)c4ccccc4)C[C@@](O)([C@@H](OC(=O)c4ccccc4)[C@H]21)C3(C)C [Docetaxel] | 0.002 | 0.03 | cross-resistance of paclitaxel+carboplatin resistant variant (H1355 T16): cross-resistant; cross-resistance of paclitaxel+carboplatin resistant variants (H1299 T18): cross-resistant
24 | O=C1C(=Cc2cccnc2)C(=O)c2ccccc21 [PRT 4165] | 1.4 | 1.0 | –
25 | Nc1nccc2c1ncn2C1C=C(CO)C(O)C1O (stereo not drawn) [DZNep] | 1.7 | 0.5 | –
26 | Nc1ncn([C@@H]2O[C@H](CO)[C@@H](O)[C@H]2O)c(=O)n1 [5-azacytidine] | 2.6 | 0.2 | –
27 | CC(/C=C/C(=O)NO)=C\[C@@H](C)C(=O)c1ccc(N(C)C)cc1 [Trichostatin A] | 2.6 | 1.8 | –

From patent US11497740B2, “Use of Jumonji C demethylase inhibitors for the treatment and prevention of chemotherapy resistance and radioresistance in cancer” (THE BOARD OF REGENTS OF THE UNIVERSITY OF TEXAS SYSTEM, priority 2016, dated 2022)
